Measurements: PubChem BioAssay AID2060897 (Molecular Pharmacology Branch, DTP, NCI, 2025)

System: 966289-007-R4-J1-PDC complex spheroid viability
Assay: Anticancer human tumor 966289-007-R4-J1-PDC patient-derived pancreatic adenocarcinoma cell line growth inhibition [RAS]
Conditions: for IC50: curve of first compound; for viability, T/C: stronger effect = lower value
Excerpt: RAS pathway inhibitors in Combinations in Complex Spheroids
A high-throughput screen of multi-cell type tumor spheroids was designed to identify active combinations of RAS pathway inhibitors and targeted small molecules. Complex spheroids include a stromal component modeled by human endothelial cells (HUVEC) and fibroblasts modeled by human mesenchymal stem cells (MSCs). The concentration ranges selected for each drug and investigational agent were based upon clinically achievable concentrations if the clinical Cmax of the agent was known.
Compounds. The drugs and investigational agents: abemaciclib (NSC768073), cobimetinib (NSC768068), divarasib (GDC6063, NSC841802), docetaxel (NSC628503), GDC-1971 (RLY-1971, NSC841576), gemcitabine (NSC613327), inavolisib (NSC800729), ipatasertib (NSC767898), KB-0742 (NSC834161), MRTX-1133 (NSC836407), osimertinib (NSC779217), RMC-4630 (NSC839698), RMC-6236 (NSC851965), RMC-6291 (NSC852671), Ro-3306 (NSC812927), sapanisertib (NSC764658), SN-38 (NSC673596), staurosporine (NSC755774), SY5609 (NSC837396), and tovorafenib (DAY101, NSC766906), were obtained from the National Cancer Institute (NCI) Developmental Therapeutics Program Chemical Repository. The FDA-approved anticancer drug set is available from the NCI Developmental Therapeutics Program. […] The stock solutions were prepared in dimethyl sulfoxide (DMSO, Sigma-Aldrich, St. Louis, MO, cat. D2650) at 800-fold the tested concentration and stored at -70 degrees C prior to their use. All drugs and investigational agents were tested over a range starting from a high concentration at or near the clinical Cmax and decreasing in half-log increments. If the clinical Cmax for an agent had not been determined, the highest concentration tested was 10 microM.
Cell Culture. All cells were maintained in an incubator at 37 degrees C and 5% CO2 with 95% humidity. The PDC lines were cultured according to standard operating procedures established by the NCI PDMR. All PDCs were thawed and cultured in Matrigel-coated flasks prepared with a working solution of 1X Ham's F-12 nutrient mix, without supplementation (Invitrogen, Waltham, MA, cat. 11765054), 100 U/mL penicillin-streptomycin (Invitrogen, cat. 15140122), and 2.5% Matrigel (Corning Inc., Corning, NY, cat. 354248) for the first three passages. The 362531-283-R-J2-PDC and 782815-120-R-J1-PDC lines were cultured in 6C/Colon 1B media, which includes advanced DMEM/F-12 (Thermo Fisher Scientific, cat. 12634028), 10 mM HEPES (Thermo Fisher Scientific, cat. 15630080), 1X GlutaMAX supplement (Thermo Fisher Scientific, cat. 35050061), 0.1 mg/mL primocin (InvivoGen, San Diego, CA, cat. ant-pm-2), 10% defined fetal bovine serum, heat inactivated (HyClone Laboratories Inc., Logan, UT, cat. SH30070.03HI), 50% L-WRN conditioned media (ATCC, cat. CRL-3276), 1.25 mM N-Acetyl-L-cysteine (Sigma-Aldrich, cat. A9165), 10 mM nicotinamide (Sigma-Aldrich, cat. N0636), 1X B-27 supplement (Thermo Fisher Scientific, cat. 17504044), 1X N-2 supplement (Thermo Fisher Scientific, cat. 17502048), 50 ng/mL human EGF (Thermo Fisher Scientific, cat. PHG0311), and 10 microM Y-27632 dihydrochloride (Tocris Bioscience, cat. 1254). The K12877-001-R-J1-PDC line was cultured in 6I media, which includes all 6C/Colon 1B media plus 10 ng/mL human FGF-10 (PeproTech, cat. 100-26), 1 ng/mL human FGF-2 (PeproTech, cat. 100-18B), 1 µM prostaglandin E2 (Tocris Bioscience, cat. 2296), […] hydrocortisone (Sigma-Aldrich, cat. H4001), and […] bovine insulin (Sigma-Aldrich, cat. I6634). The K86415-001-R-J1-PDC line was cultured in 6D media, which includes all 6C/Colon 1B media components minus the L-WRN conditioned media. The 485176-168-R4-J1-PDC was cultured in PANC media, which includes all 6C/Colon 1B media plus 100 ng/mL human FGF-10 (PeproTech, cat. 100-26), 500 nM SB-431542 (Selleckchem, cat. S1067), and 10 nM gastrin (Tocris Bioscience, cat. 3006). […]

[1] = second compound 0.0316 µM, first compound 0.0316 µM
[2] = second compound 0.0316 µM, first compound 0.1 µM
[3] = second compound 0.0316 µM, first compound 0.316 µM
[4] = second compound 0.0316 µM, first compound 1 µM
[5] = second compound 0.1 µM, first compound 0.0316 µM
[6] = second compound 0.1 µM, first compound 0.1 µM
[7] = second compound 0.1 µM, first compound 0.316 µM
[8] = second compound 0.1 µM, first compound 1 µM
[9] = second compound 0.316 µM, first compound 0.0316 µM
[10] = second compound 0.316 µM, first compound 0.1 µM
[11] = second compound 0.316 µM, first compound 0.316 µM
[12] = second compound 0.316 µM, first compound 1 µM
[13] = second compound 1 µM, first compound 0.0316 µM
[14] = second compound 1 µM, first compound 0.1 µM
[15] = second compound 1 µM, first compound 0.316 µM
[16] = second compound 1 µM, first compound 1 µM
[17] = second compound 3.16 µM, first compound 0.0316 µM
[18] = second compound 3.16 µM, first compound 0.1 µM
[19] = second compound 3.16 µM, first compound 0.316 µM
[20] = second compound 3.16 µM, first compound 1 µM
[21] = second compound 10 µM, first compound 0.0316 µM
[22] = second compound 10 µM, first compound 0.1 µM
[23] = second compound 10 µM, first compound 0.316 µM
[24] = second compound 10 µM, first compound 1 µM
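Also: spheroids exposed to agents for one week before readout.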
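For viability, T/C in this document: percent viability relative to DMSO vehicle control wells as 100%.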

`CC(Nc1ccc2c(c1)OCCn1cc(N3C(=O)OCC3C(F)F)nc1-2)C(N)=O` (centres undefined) + C#Cc1c(F)ccc2cc(O)cc(-c3ncc4c(N5CC6CCC(C5)N6)nc(OCC56CCCN5CC(F)C6)nc4c3F)c12 was tested, and the IC50 (second compound 0.0316 µM) was > 10000 nM, the IC50 (second compound 0.1 µM) was > 10000 nM and the IC50 (second compound 0.316 µM) was > 10000 nM. The IC50 (second compound 1 µM) was > 10000 nM, the IC50 (second compound 3.16 µM) was > 10000 nM and the IC50 (second compound 10 µM) was > 10000 nM. For the same molecule, the viability, T/C [1] was 108%, the viability, T/C [2] was 106% and the viability, T/C [3] was 100%. The viability, T/C [4] was 95.5%, the viability, T/C (second compound 0.0316 µM, first compound 3.16 µM) was 107% and the viability, T/C (second compound 0.0316 µM, first compound 10 µM) was 86.8%. It also gave a viability, T/C [5] of 104%, a viability, T/C [6] of 110% and a viability, T/C [7] of 101%. For the same molecule, the viability, T/C [8] was 112%, the viability, T/C (second compound 0.1 µM, first compound 3.16 µM) was 111% and the viability, T/C (second compound 0.1 µM, first compound 10 µM) was 86.9%. It also gave a viability, T/C [9] of 110%, a viability, T/C [10] of 102% and a viability, T/C [11] of 91.6%. It also gave a viability, T/C [12] of 95.3%, a viability, T/C (second compound 0.316 µM, first compound 3.16 µM) of 94.8% and a viability, T/C (second compound 0.316 µM, first compound 10 µM) of 77.3%. For the same molecule, the viability, T/C [13] was 109%, the viability, T/C [14] was 109% and the viability, T/C [15] was 121%. The viability, T/C [16] was 113%, the viability, T/C (second compound 1 µM, first compound 3.16 µM) was 115% and the viability, T/C (second compound 1 µM, first compound 10 µM) was 81.2%. The viability, T/C [17] was 104%, the viability, T/C [18] was 95% and the viability, T/C [19] was 115%. The viability, T/C [20] was 91.6%, the viability, T/C (second compound 3.16 µM, first compound 3.16 µM) was 97% and the viability, T/C (second compound 3.16 µM, first compound 10 µM) was 83.1%. For the same molecule, the viability, T/C [21] was 98.9%, the viability, T/C [22] was 113% and the viability, T/C [23] was 119%. The viability, T/C [24] was 104%, the viability, T/C (second compound 10 µM, first compound 3.16 µM) was 95.9% and the viability, T/C (second compound 10 µM, first compound 10 µM) was 90.7%.

Molecule `O=C(c1ccc(F)c(F)c1Nc1ccc(I)cc1F)N1CC(O)([C@@H]2CCCCN2)C1` + C#Cc1c(F)ccc2cc(O)cc(-c3ncc4c(N5CC6CCC(C5)N6)nc(OCC56CCCN5CC(F)C6)nc4c3F)c12 has an IC50 (second compound 0.0316 µM) of 397 nM, an IC50 (second compound 0.1 µM) of 376 nM and an IC50 (second compound 0.316 µM) of 395 nM. It also gave an IC50 (second compound 1 µM) of 409 nM, an IC50 (second compound 3.16 µM) of 404 nM and an IC50 (second compound 10 µM) of 522 nM. It also gave a viability, T/C (second compound 0.0316 µM, first compound 0.00316 µM) of 87%, a viability, T/C (second compound 0.0316 µM, first compound 0.01 µM) of 68.4% and a viability, T/C [1] of 78%. The viability, T/C [2] was 66.3%, the viability, T/C [3] was 55.5% and the viability, T/C [4] was 31.8%. It also gave a viability, T/C (second compound 0.1 µM, first compound 0.00316 µM) of 96.2%, a viability, T/C (second compound 0.1 µM, first compound 0.01 µM) of 73.7% and a viability, T/C [5] of 61.7%. It also gave a viability, T/C [6] of 66.3%, a viability, T/C [7] of 64.5% and a viability, T/C [8] of 33.3%. It also gave a viability, T/C (second compound 0.316 µM, first compound 0.00316 µM) of 76%, a viability, T/C (second compound 0.316 µM, first compound 0.01 µM) of 70.3% and a viability, T/C [9] of 73%. It also gave a viability, T/C [10] of 60.8%, a viability, T/C [11] of 56.4% and a viability, T/C [12] of 33.3%. For the same molecule, the viability, T/C (second compound 1 µM, first compound 0.00316 µM) was 74.5%, the viability, T/C (second compound 1 µM, first compound 0.01 µM) was 74.4% and the viability, T/C [13] was 65%. It also gave a viability, T/C [14] of 65.2%, a viability, T/C [15] of 56.6% and a viability, T/C [16] of 32.8%. The viability, T/C (second compound 3.16 µM, first compound 0.00316 µM) was 78.6%, the viability, T/C (second compound 3.16 µM, first compound 0.01 µM) was 72.9% and the viability, T/C [17] was 70.7%. It also gave a viability, T/C [18] of 64.4%, a viability, T/C [19] of 54.2% and a viability, T/C [20] of 36.3%. For the same molecule, the viability, T/C (second compound 10 µM, first compound 0.00316 µM) was 77.7%, the viability, T/C (second compound 10 µM, first compound 0.01 µM) was 69.8% and the viability, T/C [21] was 71.2%. It also gave a viability, T/C [22] of 66%, a viability, T/C [23] of 59.4% and a viability, T/C [24] of 39.3%.
